Where two headings read alike, the source gives them in different places.
Legend:
MIN6 cells [1] = experiment: MIN6 cell proliferation by Ki-67 staining and flow cytometry; format: cell-based, mouse; conditions: for Ki-67-positive cells, combination with GLP-1 / Ki-67-positive cells, combination with LY364947: MIN6; for Ki-67-positive cells, combination with GLP-1: GLP-1 5 nM
MIN6 cells [2] = experiment: Insulin expression level by flow cytometry, MIN6; format: cell-based, mouse; conditions: for effect on insulin level over 12 days: MIN6, compound alone, 24 h incubation
INS-1E cells [3] = experiment: Insulin expression level by flow cytometry, INS-1E; format: cell-based, rat; conditions: for effect on insulin level over 12 days: compound alone, 24 h incubation; for insulin level: harmine 1 μM
[4] = test system: hiPSC-derived beta cells organoids; experiment: Glucose-stimulated insulin secretion by ELISA, hiPSC-derived pancreatic islet organoids; format: cell-based, human; conditions: 24 h incubation; for insulin secretion by organoids (GSIS, ELISA): compound alone
Protocol: Differentiation of hiPSC into iPSC-derived β-cell islets was carried out following the protocol established by Pellegrini et al.[50]. A day before differentiation, 1 × 10^4 cells were seeded on coated with Geltrex (Gibco) 12 wells plate in Essential 8 medium (Gibco) with Y-27632 10 µM (Abcam). The appropriate culture media and required components based on the protocol of Pellegrini with modifications, as published in Barzowska et al.[37].
Cells and organoids were homogenized in lysis buffer.
Figure 9 Quercetin and TGFβ inhibitor—LY364947 collectively support insulin release from hiPSC-derived pancreatic islet organoids. (A) The analysis of insulin secretion by ELISA assay. […] The organoids were immunostained for insulin (green) and cytoskeleton (red). The nuclei were stained with Hoechst 33258 (blue). Scale bars, 20 μm.

DYRK1A = target: T1, DYRK1A (Homo sapiens, UniProt Q13627); experiment: Cook activity assay (DYRK1A-catalyzed phosphorylation of DYRKtide, ADP production linked to PK/LDH NADH oxidation); format: biochemical; conditions: for IC50: read-out: IC50 (DYRK1A inhibition)
T1 construct: In the assay, the truncated DYRK1A protein restricted to the kinase domain (126–490) was used; made in house; host or cells: E. coli LOBSTR strain

[5] = test system: DYRK1A-dependent CyclinD1 phosphorylation; experiment: CyclinD1 phosphorylation profile in transfected HEK293T cells (Western blot); format: cell-based; conditions: 10 μM, 6 h; HEK293T co-transfected with HA-CyclinD1 and Flag-DYRK1A
[6] = test system: DYRK1A-related NFAT signaling; experiment: NFAT activity luciferase assay in HEK293T NFAT cells; format: cell-based; conditions: for increase in Renilla luciferase activity (NFAT reporter): 10 μM, 3 h pre-treatment, then PMA/IM 5 h, relative to DMSO
[7] = LogP determination by the shake-flask method; format: physicochemical; conditions: n-octanol/PBS
MIN6 cells [8] = experiment: MTT cytotoxicity and cell survival assay, MIN6; conditions: MIN6, 24 h
INS-1E cells [9] = experiment: MTT cytotoxicity and cell survival assay, INS-1E; conditions: for concentration range with increased cell viability (MTT): 24 h; for cytotoxic effect, combination with LY364947 or GLP-1: LY364947 […] or GLP-1 5 nM, gossypin […], rutin 1 μM
MIN6 cells [10] = experiment: Glucose-stimulated insulin secretion (GSIS) quantified by ELISA, MIN6; conditions: GLP-1 5 nM
[11] = test system: DYRK1A-controlled calcineurin/NFAT pathway; experiment: NFAT translocation assay (NFAT-GFP, mCherry-DYRK1A) in HEK293T cells; format: cell-based; conditions: 10 μM, 3 h, then IM 5 μM 1 h
[12] = 5 μM, 10 μM and 20 μM of compound, DMSO = 100%
[13] = kinase domain (126–490), compound 20 nM–200 μM, ATP (128 µM)

Compound	increase in proliferation rate (Ki-67-positive cells) vs control (MIN6 cells [1]; MIN6, compound alone)	effect on residual DYRK1A activity (DYRK1A; [12])	IC50 (DYRK1A; [13])	CyclinD1 phosphorylation (p-CyclinD1 at Thr289) [5]	increase in Renilla luciferase activity (NFAT reporter) [6]	concentration range with increased cell viability (MTT) (MIN6 cells [8])	concentration range with increased cell viability (MTT) (INS-1E cells [9])	further results
c1ccc(-c2[nH]ncc2-c2ccnc3ccccc23)nc1 [LY364947]	up to 5%							effect on insulin level over 12 days (MIN6 cells [2]): less prominent but constant effect over the 12 days; effect on insulin level over 12 days (INS-1E cells [3]): less prominent but constant effect over the 12 days; insulin secretion by organoids (GSIS, ELISA) [4]: less pronounced effect
O=c1cc(-c2ccc(O)cc2)oc2cc(O[C@@H]3O[C@H](CO)[C@@H](O)[C@H](O)[C@H]3O)cc(O)c12 [apigetrin, 5-hydroxy-2-(4-hydroxyphenyl)-7[(2S,3R,4S,5S,6R)3,4,5-trihydroxy-6-(hydroxymethyl)oxan-2-yl]oxychromen-4-one]		no influence on DYRK1A activity						
O=c1cc(-c2ccccc2)oc2cc(O)c(O)c(O)c12 [baicalein, 5,6,7-trihydroxy-2-phenylchromen-4-one]	5%	decreased DYRK1A activity dose-dependently	3.6 µM	significantly reduced CyclinD1 phosphorylation	threefold	0.1 to 2.5 µM	0.1 to 2.5 µM	logP at 15 min [7]: 2.55; Ki-67-positive cells, combination with GLP-1 (MIN6 cells [1]; control cells 32%): 55%; Ki-67-positive cells, combination with LY364947 (MIN6 cells [1]; control cells 32%): 48%; insulin secretion (GSIS, ELISA), combination with GLP-1 (MIN6 cells [10]): improve insulin secretion
COc1cc(-c2cc(=O)c3c(O)c(OC)c(OC)c(OC)c3o2)cc(OC)c1OC [gardenin A, 5-hydroxy-6,7,8-trimethoxy-2-(3,4,5-trimethoxyphenyl)chromen-4-one]		no influence on DYRK1A activity						
O=c1c(O)c(-c2ccc(O)c(O)c2)oc2c(O[C@@H]3O[C@H](CO)[C@@H](O)[C@H](O)[C@H]3O)c(O)cc(O)c12 [gossypin, 2-(3,4-dihydroxyphenyl)-3,5,7-trihydroxy-8-[(2S,3R,4S,5S,6R)-3,4,5-trihydroxy-6-(hydroxymethyl)oxan-2-yl]oxychromen-4-one]		decreased DYRK1A activity dose-dependently	1.4 µM	significantly reduced CyclinD1 phosphorylation	twofold	did not influence cell viability	did not influence cell viability	LogP [7]: negative logP; cytotoxic effect, combination with LY364947 or GLP-1 (INS-1E cells [9]): slight cytotoxic effect
COc1ccc2c(c1)[nH]c1c(C)nccc12 [harmine]	about 20%					0.01 to 10 µM	1 to 2.5 µM	nuclear translocation of NFAT-GFP despite mCherry-DYRK1A overexpression [11]: induced nuclear translocation of NFAT-GFP; logP at 15 min [7]: 3.24; Ki-67-positive cells (MIN6 cells [1]; MIN6, compound alone, control cells 32%): 50%; Ki-67-positive cells, combination with GLP-1 (MIN6 cells [1]; control cells 32%): 55%; Ki-67-positive cells, combination with LY364947 (MIN6 cells [1]; control cells 32%): 58%; insulin level (MIN6 cells [2]; MIN6, day 12, control 24%, harmine 1 μM): 37%; effect on the GLP-1-induced increase in insulin production level, administered simultaneously with GLP-1 (MIN6 cells [2]; MIN6, GLP-1 5 nM): attenuated; effect on the GLP-1-induced increase in insulin production level, administered simultaneously with GLP-1 (INS-1E cells [3]; GLP-1 5 nM): attenuated; insulin level (INS-1E cells [3]; day 1, control 10%): 37%; insulin level (INS-1E cells [3]; day 5, control 28%): 34%; insulin secretion by organoids (GSIS, ELISA), with LY364947 addition [4]: enhanced by LY364947 addition; insulin secretion by organoids (GSIS, ELISA) [4]: highest insulin secretion level; concentrations at which mild toxicity was observed (MTT) (MIN6 cells [8]): higher than 50 μM
O=c1c(O)c(-c2ccc(O)cc2)oc2c(O)c(O)cc(O)c12 [herbacetin, 3,5,7,8-tetrahydroxy-2-(4-hydroxyphenyl)chromen-4-one]		decreased DYRK1A activity dose-dependently	6.3 µM	Moderate inhibition of CyclinD1 phosphorylation		Identical results	Identical results	activation of NFAT response ([6]; 1 to 10 μM): only effective at the highest concentration tested; logP at 15 min [7]: 1.72
C[C@@H]1O[C@@H](Oc2c(-c3cc(O)c(O)c(O)c3)oc3cc(O)cc(O)c3c2=O)[C@H](O)[C@H](O)[C@H]1O [myricitrin, 5,7-dihydroxy-3-[(2S,3R,4R,5R,6S)-3,4,5-trihydroxy-6-methyloxan-2-yl]oxy-2-(3,4,5-trihydroxyphenyl)chromen-4-one]		no influence on DYRK1A activity						
O=c1c(O)c(-c2ccc(O)c(O)c2)oc2cc(O)cc(O)c12 [quercetin, 2-(3,4-dihydroxyphenyl)-3,5,7-trihydroxychromen-4-one]				significantly reduced CyclinD1 phosphorylation	threefold	0.25 to 5 µM	0.25 to 5 µM	effect on residual DYRK1A activity (DYRK1A): decreased DYRK1A activity dose-dependently; IC50 (DYRK1A): 1.7 µM; LogP [7]: 1.40; Ki-67-positive cells, combination with GLP-1 (MIN6 cells [1]; control cells 32%): modest effect; effect on insulin level over 12 days (MIN6 cells [2]): noticeable decrease in insulin level on day 12; effect on insulin level over 12 days (INS-1E cells [3]): noticeable decrease in insulin level on day 12; insulin secretion by organoids (GSIS, ELISA), with LY364947 addition [4]: enhanced by LY364947 addition; insulin secretion by organoids (GSIS, ELISA) [4]: significant increase in insulin secretion
C[C@@H]1O[C@@H](OC[C@H]2O[C@@H](Oc3c(-c4ccc(O)c(O)c4)oc4cc(O)cc(O)c4c3=O)[C@H](O)[C@@H](O)[C@@H]2O)[C@H](O)[C@H](O)[C@H]1O [rutin, 2-(3,4-dihydroxyphenyl)-5,7-dihydroxy-3-[(2S,3R,4S,5S,6R)-3,4,5-trihydroxy-6-[[(2R,3R,4R,5R,6S)-3,4,5-trihydroxy-6-methyloxan-2-yl]oxymethyl]oxan-2-yl]oxychromen-4-one]		decreased DYRK1A activity dose-dependently	4.5 µM	significantly reduced CyclinD1 phosphorylation	twofold	did not influence cell viability	did not influence cell viability	LogP [7]: negative logP; cytotoxic effect, combination with LY364947 or GLP-1 (INS-1E cells [9]): slight cytotoxic effect
COc1ccc(-c2cc(=O)c3c(OC)c(OC)c(OC)cc3o2)cc1OC [sinensetin, 2-(3,4-dimethoxyphenyl)-5,6,7-trimethoxychromen-4-one]		no influence on DYRK1A activity						
GLP-1: GLP-1R agonist	up to 5%							effect on insulin level over 12 days (MIN6 cells [2]): robust increase in insulin production level in the late stage of the experiment (day 5–12); effect on insulin level over 12 days (INS-1E cells [3]): robust increase in insulin production level in the late stage of the experiment (day 5–12)

Reference: paper PMC10593742, “Binding mechanism and biological effects of flavone DYRK1A inhibitors for the design of new antidiabetics” (Scientific Reports, 2023)
